Data: PubChem BioAssay AID330 (DTP/NCI, 2004)
Several values for one entry are separate records, joined by “and”; a condition that tells them apart may be missing. Equal entries are not always repeated. Toxic doses and inconclusive results are not listed. Rule for the calls: active = survival T/C of 150% or more; inactive = T/C below 125% in these data. Peptide text beside a SMILES is read from it.

System: P388 leukemia ip, CD2F1 mice, survival T/C
Assay: NCI In Vivo Anticancer Drug Screen. Data for tumor model P388 Leukemia (intraperitoneal) in CD2F1 (CDF1) mice
Details: endpoint: median survival time, higher = longer survival
Summary of the method: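 Mice carrying the transplanted tumor received test compound or vehicle. Survival was recorded in each group, and the value is the treated-group measurement divided by that of the vehicle-treated control group.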

[1] = dose: 60.0 mg/kg/injection, schedule: Q01DX005 (ip), vehicle: saline with Tween-80
[2] = dose: 120.0 mg/kg/injection, schedule: Q01DX005 (ip), vehicle: saline with Tween-80
[3] = dose: 240.0 mg/kg/injection, schedule: Q01DX005 (ip), vehicle: saline with Tween-80

Measured: T/C

CCN1C(=O)CC([Se]c2ccccc2)C1=O (stereo unspecified)
inactive: dose: 6.25 mg/kg/injection, schedule: Q04DX003 (ip), vehicle: Klucel (hydroxypropylcellulose) (HPC) 99 % of control and 103 % of control | dose: 12.5 mg/kg/injection, schedule: Q04DX003 (ip), vehicle: Klucel (hydroxypropylcellulose) (HPC) 99 % of control and 102 % of control | dose: 25.0 mg/kg/injection, schedule: Q04DX003 (ip), vehicle: Klucel (hydroxypropylcellulose) (HPC) 100 % of control and 105 % of control | dose: 50.0 mg/kg/injection, schedule: Q04DX003 (ip), vehicle: Klucel (hydroxypropylcellulose) (HPC) 103 % of control and 104 % of control | dose: 100.0 mg/kg/injection, schedule: Q04DX003 (ip), vehicle: Klucel (hydroxypropylcellulose) (HPC) 100 % of control and 104 % of control

NC(CO)C(O)c1ccc(N=Nc2ccc(O)cc2)cc1 (stereo unspecified)
inactive: dose: 25.0 mg/kg/injection, schedule: Q01DX009 (ip), vehicle: saline with Tween-80 95 % of control | dose: 50.0 mg/kg/injection, schedule: Q01DX009 (ip), vehicle: saline with Tween-80 100 % of control | dose: 100.0 mg/kg/injection, schedule: Q01DX009 (ip), vehicle: saline with Tween-80 95 % of control

CN(C)C(=S)S
inactive: dose: 50.0 mg/kg/injection, schedule: Q01DX009 (ip), vehicle: Klucel (hydroxypropylcellulose) (HPC) 102 % of control | dose: 100.0 mg/kg/injection, schedule: Q01DX009 (ip), vehicle: Klucel (hydroxypropylcellulose) (HPC) 100 % of control | dose: 200.0 mg/kg/injection, schedule: Q01DX009 (ip), vehicle: Klucel (hydroxypropylcellulose) (HPC) 105 % of control | dose: 400.0 mg/kg/injection, schedule: Q01DX009 (ip), vehicle: Klucel (hydroxypropylcellulose) (HPC) 114 % of control

Cn1c2c(c(=O)c3ccccc31)CCC(C)(C)O2
inactive: dose: 50.0 mg/kg/injection, schedule: Q01DX005 (ip), vehicle: Klucel (hydroxypropylcellulose) (HPC) 100 % of control | dose: 100.0 mg/kg/injection, schedule: Q01DX005 (ip), vehicle: Klucel (hydroxypropylcellulose) (HPC) 91 % of control | dose: 200.0 mg/kg/injection, schedule: Q01DX005 (ip), vehicle: Klucel (hydroxypropylcellulose) (HPC) 98 % of control

CC(C)CC(NC(=O)C(Cc1ccccc1)NC(=O)CNC(=O)CN)C(=O)O (stereo unspecified) (H-GGFL-OH; configuration not given here)
inactive: dose: 12.5 mg/kg/injection, schedule: Q01DX005 (ip), vehicle: water 100 % of control | dose: 25.0 mg/kg/injection, schedule: Q01DX005 (ip), vehicle: water 100 % of control | dose: 50.0 mg/kg/injection, schedule: Q01DX005 (ip), vehicle: water 96 % of control | dose: 100.0 mg/kg/injection, schedule: Q01DX005 (ip), vehicle: water 102 % of control | dose: 200.0 mg/kg/injection, schedule: Q01DX005 (ip), vehicle: water 96 % of control

O=C(Nc1ccc(Cl)cc1)Nc1nnc(-c2ccccc2Br)o1
inactive: [1] 105 % of control | [2] 94 % of control | [3] 95 % of control

COc1ccc(C(=O)Cc2nc3nnc(N)n3nc2CC(=O)c2ccc(OC)cc2)cc1
inactive: dose: 60.0 mg/kg/injection, schedule: Q01DX005 (ip), vehicle: saline 96 % of control | dose: 120.0 mg/kg/injection, schedule: Q01DX005 (ip), vehicle: saline 100 % of control | dose: 240.0 mg/kg/injection, schedule: Q01DX005 (ip), vehicle: saline 100 % of control

CNC(=O)c1ccccc1C1(O)c2ccccc2CCc2ccccc21
inactive: dose: 50.0 mg/kg/injection, schedule: Q01DX005 (ip), vehicle: saline with Tween-80 94 % of control | dose: 100.0 mg/kg/injection, schedule: Q01DX005 (ip), vehicle: saline with Tween-80 93 % of control | dose: 200.0 mg/kg/injection, schedule: Q01DX005 (ip), vehicle: saline with Tween-80 90 % of control

CCN(CC)CCCNc1cc(OC)c(Nc2ccccc2)c2cccnc12
inactive: dose: 3.12 mg/kg/injection, schedule: Q01DX005 (ip), vehicle: suspension in saline 112 % of control | dose: 6.25 mg/kg/injection, schedule: Q01DX005 (ip), vehicle: suspension in saline 100 % of control | dose: 12.5 mg/kg/injection, schedule: Q01DX005 (ip), vehicle: suspension in saline 99 % of control

[CH3][Sn]([CH3])([N]=C=S)[N]=C=S
inactive: dose: 6.25 mg/kg/injection, schedule: Q01DX009 (ip), vehicle: saline 86 % of control and 93 % of control | dose: 12.5 mg/kg/injection, schedule: Q01DX009 (ip), vehicle: saline 100 % of control and 102 % of control and 106 % of control | dose: 25.0 mg/kg/injection, schedule: Q01DX009 (ip), vehicle: saline 99 % of control and 102 % of control | dose: 50.0 mg/kg/injection, schedule: Q01DX009 (ip), vehicle: saline 99 % of control and 103 % of control | dose: 50.0 mg/kg/injection, schedule: Q01DX009 (ip), vehicle: suspension in saline 114 % of control

CCOC(=O)c1c(C)n(C)c2c1nnc1ccccc12
inactive: [1] 98 % of control | [2] 90 % of control | [3] 86 % of control

O=S(=O)(Nc1cccc(F)c1)c1ccc(F)cc1
inactive: [1] 103 % of control | [2] 99 % of control | [3] 93 % of control

c1ccc(CCN2COc3c(ccc4cccnc34)C2)cc1
inactive: dose: 25.0 mg/kg/injection, schedule: Q04DX003 (ip), vehicle: saline with Tween-80 110 % of control | dose: 50.0 mg/kg/injection, schedule: Q04DX003 (ip), vehicle: saline with Tween-80 110 % of control | dose: 100.0 mg/kg/injection, schedule: Q04DX003 (ip), vehicle: saline with Tween-80 100 % of control
